We go through 27 molecules from US10047105B2, “Gyrase inhibitors” (Merck Sharp & Dohme Corp., priority 2009, dated 2018).

The test system of assay [1] is S. aureus ATCC 13709. Kind of assay: MIC, antibacterial potency, S. aureus. It is filed as cell-based.
The subject of assay [2] is S. pneumoniae ATCC 51916. The assay can be described thus: MIC, S. pneumoniae. The class given is cell-based.
The mark [3] stands for this setting: S. pneumoniae (Spn52), in µg/mL.

In brackets after ≈: the same amount, converted by molar mass.

In turn, `CCOc1nc(Nc2cnc3nccnc3c2)nc2[nH]c(CC)c(Br)c12.O=C(O)C(F)(F)F` [700,572] registered an MIC, SA in assay [1] (S. aureus) of 4 µg/mL. The MIC Spn52 in assay [2] (S. pneumoniae) is greater than 8 µg/mL.
Taken in the same sequence, the figures for `CCc1[nH]c2nc(Sc3cnc4nccnc4c3)nc(N3CC[C@@H](N(C)C)C3)c2c1Cl` [700,430] were 32 µg/mL (≈ 70.3 µM) and 32 µg/mL (≈ 70.3 µM).
On to `CCc1[nH]c2nc(Oc3cccc(C#N)c3)nc(C3CC3)c2c1Cl` [700,874], for which the “MIC, SA” value in assay [1] (S. aureus (SA), in µg/mL) is on record as 2. In assay [2] (setting [3]), the “MIC Spn52” value amounted to 8.
In assay [1] (S. aureus), `CCOc1nc(Sc2ccc(NCCCOC)nn2)nc2[nH]c(CC)c(Cl)c12` [700,326] displayed an MIC, SA greater than 64 µg/mL. The molecule also gave an MIC Spn52 in assay [2] (S. pneumoniae) of 32 µg/mL (≈ 75.7 µM).
Regarding `CCc1[nH]c2nc(Sc3cnc4nccnc4c3)nc(N3CC(C)(N)C3)c2c1Cl.O=C(O)C(F)(F)F.O=C(O)C(F)(F)F` [700,630], in assay [1] (S. aureus), the MIC, SA turned out to be 4 µg/mL. The MIC Spn52 in assay [2] (S. pneumoniae) came out at 8 µg/mL.
Taken in the same sequence, the figures for `CCc1[nH]c2nc(Sc3cc(OC)nc(OC)n3)nc(N3CC(O)C3)c2c1Cl.Cl.Cl` [700,411] were greater than 64 µg/mL and greater than 64 µg/mL.
The corresponding values for `CCOc1nc(Oc2ccc3c(N)nc(C)nc3c2)nc2[nH]c(CC)c(Cl)c12.O=C(O)C(F)(F)F` [700,664] are 2 µg/mL and 4 µg/mL.
In assay [1] (S. aureus), `CCc1[nH]c2nc(Sc3cnc4c(N)nc(N)nc4c3)nc(OCc3cccnc3)c2c1Cl.O=C(O)C(F)(F)F.O=C(O)C(F)(F)F` [700,492] showed an MIC, SA of 8 µg/mL. This molecule returned an MIC Spn52 in assay [2] (S. pneumoniae) greater than 64 µg/mL.
In the case of `CCc1[nH]c2nc(Oc3cnc4ccoc4c3)nc(Oc3cnc4ccoc4c3)c2c1Br` [700,883], the “MIC, SA” value in assay [1] (S. aureus (SA), in µg/mL) is “<=0.5”. For the same molecule, in assay [2] (setting [3]), the “MIC Spn52” value is listed as “<=0.5”.
Consider `CCc1[nH]c2nc(Oc3cncnc3)nc(Oc3cncc(C#N)c3)c2c1Cl.O=C(O)C(F)(F)F` [700,722], for which the MIC, SA in assay [1] (S. aureus) was determined as 4 µg/mL. The MIC Spn52 in assay [2] (S. pneumoniae) is 8 µg/mL.
Taken in the same sequence, the figures for `CCc1[nH]c2nc(Sc3cc(=O)n(C)c(=O)[nH]3)nc(N3CC4CNC4C3)c2c1Cl.O=C(O)C(F)(F)F` (stereo not drawn) [700,628] were 2 µg/mL and 8 µg/mL.
Regarding `CCc1[nH]c2nc(Sc3ccc4c(N5CC(N)C5)cc(C(=O)O)nc4c3)nc(N3CC[C@@H](N)C3)c2c1Cl` [700,620], in assay [1] (S. aureus), the MIC, SA turned out to be 32 µg/mL (≈ 59.4 µM). In assay [2] (S. pneumoniae), the MIC Spn52 was greater than 64 µg/mL.
Taken in the same sequence, the figures for `CCOC(=O)c1coc(Sc2nc(OCC)c3c(Br)c(CC)[nH]c3n2)n1` [700,290] were greater than 64 µg/mL and greater than 64 µg/mL.
Molecule `CCOc1nc(Nc2cnc3cccnc3n2)nc2[nH]c(CC)c(Br)c12.Cl.Cl` [700,378] yielded an MIC, SA in assay [1] (S. aureus) greater than 64 µg/mL. The same molecule had an MIC Spn52 in assay [2] (S. pneumoniae) greater than 64 µg/mL.
As for `CCc1[nH]c2nc(Nc3cnc4c(c3)nnn4C(C)C)nc(N(C)CCO)c2c1Cl.O=C(O)C(F)(F)F` [700,534], the MIC, SA in assay [1] (S. aureus) came out at 2 µg/mL. Further, the MIC Spn52 in assay [2] (S. pneumoniae) was greater than 32 µg/mL.
Taken in the same sequence, the figures for `CCc1[nH]c2nc(Sc3nc(C(=O)NOC)cs3)nc(N3CCOCC3)c2c1Cl.O=C(O)C(F)(F)F` [700,397] were greater than 64 µg/mL and greater than 64 µg/mL.
The corresponding values for `CCOc1nc(Nc2ccc(Cl)c3ncccc23)nc2[nH]c(CC)c(Br)c12.O=C(O)C(F)(F)F` [700,483] are 32 µg/mL and 32 µg/mL.
Taken in the same sequence, the figures for `CCc1[nH]c2nc(Sc3cnc4nccnc4c3)nc(N3CC(CNC(=O)CN4C(=O)CSC4=O)C3)c2c1Cl` [700,519] were 1 µg/mL (≈ 1.71 µM) and 1 µg/mL (≈ 1.71 µM).
With `CCc1[nH]c2nc(Sc3ccc(S(=O)(=O)NCCN4CCOCC4)cc3)nc(N3CC(N)C3)c2c1Cl` [700,596], in assay [1] (S. aureus), the MIC, SA worked out at 32 µg/mL (≈ 58 µM). The molecule further yielded an MIC Spn52 in assay [2] (S. pneumoniae) of 32 µg/mL (≈ 58 µM).
In turn, `CCOc1nc(Nc2cncnc2)nc2[nH]c(CC)c(Cl)c12.O=C(O)C(F)(F)F` [700,702] showed an MIC, SA in assay [1] (S. aureus) of 2 µg/mL. This molecule displayed an MIC Spn52 in assay [2] (S. pneumoniae) of 16 µg/mL.
In turn, `CCc1[nH]c2nc(Sc3ccc4c(N)nc(C)nc4c3)nc(N3CC[C@@H](N)C3)c2c1Cl` [700,717] gave an MIC, SA in assay [1] (S. aureus) of 2 µg/mL (≈ 4.4 µM). This molecule had an MIC Spn52 in assay [2] (S. pneumoniae) of 4 µg/mL (≈ 8.79 µM).
The corresponding values for `CCCn1c(=O)cc(Sc2nc(N3CC(O)C3)c3c(Cl)c(CC)[nH]c3n2)[nH]c1=O` [700,418] are 1 µg/mL (≈ 2.29 µM) and 8 µg/mL (≈ 18.3 µM).
On to `CCc1[nH]c2nc(Oc3cncc(C#N)c3)nc(Oc3cncnc3)c2c1Br` [700,899], for which, in assay [1] (S. aureus (SA), in µg/mL), the “MIC, SA” value is “<=0.5”. Also, the “MIC Spn52” value in assay [2] (setting [3]) is listed as “<=0.5”.
Molecule `CCc1[nH]c2nc(Sc3cnc4nccnc4c3)nc(N3CC4CNC4C3)c2c1Br.O=C(O)C(F)(F)F` (stereo not drawn) [700,673] had an MIC, SA in assay [1] (S. aureus) of 2 µg/mL. The molecule further showed an MIC Spn52 in assay [2] (S. pneumoniae) of 4 µg/mL.
Turning to `CCc1[nH]c2nc(Sc3cnc4c(N)nc(CN5CCC(N)CC5)nc4c3)nc(N3CC[C@@H](N)C3)c2c1Cl` [700,827], the “MIC, SA” value in assay [1] (S. aureus (SA), in µg/mL) was 4. Moreover, the “MIC Spn52” value in assay [2] (setting [3]) was determined as 32.
Taken in the same sequence, the figures for `CCc1[nH]c2nc(Sc3ccc4c(N5CC(C6(N)CC6)C5)cc(C(=O)O)nc4c3)nc(N3CC[C@@H](N)C3)c2c1Cl` [700,860] were greater than 64 and greater than 64.
In the case of `CCc1[nH]c2nc(SC)nc(CCCNCCN3CCOCC3)c2c1Br` [700,334], the MIC, SA in assay [1] (S. aureus) was greater than 64 µg/mL. Also, the MIC Spn52 in assay [2] (S. pneumoniae) was greater than 64 µg/mL.
